What was measured:
Settings in all cases: 72 h
Calu-3 [1] = test: drug sensitivity score (DSS) for viability; higher = more toxic; extreme values may be limits of the assay
Caco-2 [2] = test: as above
HepG2 [3] = test: as above
U2OS [4] = test: as above
Vero E6 [5] = test: as above
Calu-3 [6] = test: cell viability relative to DMSO; higher = less toxic
Caco-2 [7] = test: as above
HepG2 [8] = test: as above
U2OS [9] = test: as above
Vero E6 [10] = test: as above
Calu-3 [11] = test: relative viability EC50 (midpoint between 100% and the lowest measured viability); higher = less toxic
Caco-2 [12] = test: as above
HepG2 [13] = test: as above
U2OS [14] = test: as above
Vero E6 [15] = test: as above

Structure (SMILES)	drug sensitivity score (Calu-3 [1])	drug sensitivity score (Caco-2 [2])	drug sensitivity score (HepG2 [3])	drug sensitivity score (U2OS [4])	drug sensitivity score (Vero E6 [5])	cell viability (Calu-3 [6]; 1 nM)	cell viability (Calu-3 [6]; 10 nM)	cell viability (Calu-3 [6]; 100 nM)	cell viability (Calu-3 [6]; 1000 nM)	cell viability (Calu-3 [6]; 10000 nM)	cell viability (Caco-2 [7]; 1 nM)	cell viability (Caco-2 [7]; 10 nM)	cell viability (Caco-2 [7]; 100 nM)	cell viability (Caco-2 [7]; 1000 nM)	cell viability (Caco-2 [7]; 10000 nM)	cell viability (HepG2 [8]; 1 nM)	cell viability (HepG2 [8]; 10 nM)	cell viability (HepG2 [8]; 100 nM)	cell viability (HepG2 [8]; 1000 nM)	cell viability (HepG2 [8]; 10000 nM)	cell viability (U2OS [9]; 1 nM)	cell viability (U2OS [9]; 10 nM)	cell viability (U2OS [9]; 100 nM)	cell viability (U2OS [9]; 1000 nM)	cell viability (U2OS [9]; 10000 nM)	cell viability (Vero E6 [10]; 1 nM)	cell viability (Vero E6 [10]; 10 nM)	cell viability (Vero E6 [10]; 100 nM)	cell viability (Vero E6 [10]; 1000 nM)	cell viability (Vero E6 [10]; 10000 nM)	relative viability EC50 (Calu-3 [11])	relative viability EC50 (Caco-2 [12])	relative viability EC50 (HepG2 [13])	relative viability EC50 (U2OS [14])	relative viability EC50 (Vero E6 [15])
C/C(=N\NC(=O)C(NC(=O)c1ccccc1)c1n[nH]c(=O)c2ccccc12)c1cccc(Br)c1 (stereo not given)	0	0	0	0	0	95.7%	113%	100%	107%	108%	101%	102%	106%	95.8%	100%	97.7%	94.2%	98.1%	95.4%	106%	99.5%	97%	100%	102%	100%	88.3%	97.9%	97.4%	100%	104%	> 10 µM	> 10 µM	> 10 µM	> 10 µM	> 10 µM
CC1CCN(CC[C@H]2CCCN2S(=O)(=O)c2cccc(O)c2)CC1	0	0	0	0	0	90.1%	94.8%	92.3%	100%	105%	90.4%	86.5%	96.1%	91.5%	102%	91.9%	98.1%	103%	96.7%	101%	94.3%	101%	93.4%	104%	101%	100%	93.5%	96.8%	93.8%	105%	> 10 µM	> 10 µM	> 10 µM	> 10 µM	> 10 µM
CCOC(=O)Nc1ccc(NCc2c(C)cc(C)cc2C)cc1N	0	0	0	0	0	110%	110%	97.3%	104%	96.8%	101%	92.6%	101%	97.4%	99%	99.5%	95.6%	96.5%	92.8%	100%	95.9%	103%	98.9%	103%	93.1%	99.4%	96.7%	90.3%	93.3%	99.7%	> 10 µM	> 10 µM	> 10 µM	> 10 µM	> 10 µM
CCS(=O)(=O)N1CCN(c2ccc(Nc3ncc(C(N)=O)c(NC4CC4)n3)cc2)CC1	0	0	4	5.7	0.3	92.1%	111%	110%	116%	128%	99.6%	95.4%	91.9%	86.8%	99.1%	97.6%	94.3%	97.3%	76.3%	79.1%	95.9%	103%	96.4%	89.8%	27.4%	97.4%	94.8%	99.5%	85.6%	89.6%	> 10 µM	> 10 µM	> 10 µM	2.04 µM	> 10 µM
CCc1cc(O)c(Oc2ccc(C(N)=O)cc2F)cc1F	0	0	0	0	0	106%	97.8%	95.3%	98.6%	89.3%	107%	99%	104%	97.9%	101%	110%	94.1%	93%	103%	97.4%	104%	99.9%	102%	102%	102%	102%	98.2%	99.8%	104%	100%	> 10 µM	> 10 µM	> 10 µM	> 10 µM	> 10 µM
COc1ccc(Br)cc1S(=O)(=O)NC(=O)/C=C/c1ccccc1Cc1ccc2ccccc2c1	1.7	0.1	0	0	0	94.2%	106%	88%	86.5%	97.9%	104%	94%	99.1%	97.8%	87.5%	96.4%	96.5%	95.8%	98.9%	102%	99.9%	98.3%	94.4%	98.9%	95.8%	96%	98.6%	95.3%	90.8%	101%	> 10 µM	> 10 µM	> 10 µM	> 10 µM	> 10 µM
Cc1cc(-c2cc(O)ccc2Cl)cc2nnc(Nc3ccc(OCCN4CCCC4)cc3)nc12	6.5	8.4	6	8.7	6.4	100%	94.8%	101%	93.8%	0.1%	94%	94.7%	101%	82.5%	0.3%	94.5%	97.3%	106%	96.6%	0%	104%	104%	106%	80%	0%	97.8%	100%	96.3%	94%	0%	2.67 µM	1.85 µM	2.92 µM	1.74 µM	2.69 µM
FC(F)(F)c1ccc(N2CCNCC2)nc1Cl	0	0	0	0	0	96.1%	105%	93.7%	106%	107%	101%	98.5%	107%	104%	96.4%	108%	96.2%	92%	106%	104%	97.4%	99.9%	95.2%	100%	92.7%	101%	98%	95.9%	95.6%	95.2%	> 10 µM	> 10 µM	> 10 µM	> 10 µM	> 10 µM
O=C(Nc1ccc(S(=O)(=O)Nc2ccccc2Cl)c(Cl)c1)c1ccccn1	1.8	0	0	0	0	108%	91.9%	89.8%	87.3%	98.2%	95.7%	88.6%	104%	101%	89.8%	99.3%	99.8%	91.4%	101%	103%	94.8%	93.7%	103%	97.8%	98.6%	91.6%	96.7%	93.6%	101%	105%	> 10 µM	> 10 µM	> 10 µM	> 10 µM	> 10 µM
O=C(Nc1cccnn1)N1CCC(=Cc2cccc(Oc3ccc(C(F)(F)F)cn3)c2)CC1	0.2	0.9	4.7	0	0	104%	95.3%	92%	95.3%	84.9%	100%	104%	102%	96.4%	81.4%	99.9%	97.5%	106%	93.3%	34.1%	94.3%	96.2%	96.3%	97.9%	91.2%	96.1%	93.3%	93.2%	87.3%	96.1%	> 10 µM	> 10 µM	2.33 µM	> 10 µM	> 10 µM
O=C(Nc1cnc(Cl)nc1)c1ccc(F)c(F)c1	0	0	0	0	0	98.5%	98.9%	90.7%	95.5%	103%	101%	96.7%	95%	95.5%	93.8%	96.5%	96.9%	97.7%	96.5%	93.3%	102%	95.1%	95.6%	98%	98.9%	94.5%	92.1%	99.4%	96.9%	95.4%	> 10 µM	> 10 µM	> 10 µM	> 10 µM	> 10 µM
C[C@@H]1c2ccccc2CN1CC1=NCCN1 (racemic)	0	0	0	0	0	107%	96.5%	102%	108%	114%	100%	92.4%	89.9%	100%	121%	100%	86.9%	109%	116%	116%	97.4%	94.8%	101%	96.3%	104%	95.9%	97.8%	95.4%	92.9%	102%	> 10 µM	> 10 µM	> 10 µM	> 10 µM	> 10 µM
O=C(NCc1ccc(F)cc1)N1CCN2C(=O)OC(c3ccccc3)(c3ccccc3)[C@@H]2C1 (racemic) [SHA-68]	0	0.5	0	0	0	99.7%	110%	104%	100%	97.2%	101%	101%	89.1%	93.6%	85%	100%	102%	98%	107%	110%	101%	95.6%	100%	96.6%	96.8%	97.1%	96.8%	98.3%	102%	100%	> 10 µM	> 10 µM	> 10 µM	> 10 µM	> 10 µM
CCS(=O)(=O)N(C)[C@@H]1c2cc(C#N)ccc2OC(C)(C)[C@H]1O.CCS(=O)(=O)N(C)[C@H]1c2cc(C#N)ccc2OC(C)(C)[C@@H]1O (racemic) [chromanol-(+/-)]	0	0	0	0	0	103%	99.8%	92.5%	102%	97.5%	90.9%	89.9%	100%	106%	93.5%	106%	105%	100%	96.7%	94.6%	100%	96.9%	102%	96.2%	102%	101%	102%	101%	103%	95.6%	> 10 µM	> 10 µM	> 10 µM	> 10 µM	> 10 µM
